Values quoted from earlier work in US11737956B2, “Composition for intracanal medication” (MARUCHI, priority 2016, dated 2023).

Conditions: very small amount of dissolution in water

In the case of [Ca+2].[OH-].[OH-] [calcium hydroxide], the pH of water is listed as 12.4.
